Key:
CCV in CCO cells [1] = experiment: Liquid plaque assay; type: cell-based, Channel catfish virus (CCV; conditions: Ictalurid herpesvirus 1; kaempferol 10 μg/mL, 36 h; read-out: inhibition of viral plaque formation
Description: For analyzing the CPE reduction of viral infected CCO cells by kaempferol, the CCO cells were seeded in 24-well plates and cultured overnight at 28°C before infection. Then, the monolayer cells were infected with CCV at 10^3 TCID50/ml for 1 h. Subsequently, the infected cells were treated with kaempferol at different concentrations (2.5, 5, 7.5, 10, 12.5, and 15 μg/mL), respectively. The CCO cells without CCV and drug treatment were set as mock control whereas the virus-infected cells without compound treatment were set as CCV control. Each sample was directly observed and photographed under an inverted microscope at 24 and 36 h post-infection. Meanwhile, the plaque assay was performed as described in previous studies with slight modifications ([34]). Briefly, confluent cells in 24-well plates were infected with CCV (10^3 TCID50/ml) for 1 h. Subsequently, the inoculums were removed and the kaempferol with different concentrations (2.5, 5, 7.5, 10, 12.5, and 15 μg/mL) was added and remained throughout the experiment. The cells were fixed and stained with 1% crystal violet and then photographed at 36 h post-infection.
Figure 4 CPE and plaque reduction in CCO cells treated with kaempferol. (A) The cells were incubated with different concentrations of kaempferol (2.5, 5.0, 7.5, 10, 12.5 and 15.0 μg/mL) after CCV infection 1 h. […]

CCV in CCO cells [2] = experiment: Time-of-drug-addition assay, RT-qPCR; type: cell-based, Channel catfish virus (CCV, Ictalurid herpesvirus 1)
Description: The CCO cells seeded in 24-well plates were infected with CCV under five different treatment conditions: (i) Control: CCO cells cultured in the maintenance DMEM media were infected by CCV for 1 h. (ii) Pre-treatment: CCO cells were pre-treated with 15 μg/mL of kaempferol for 2 h before CCV infection. (iii) Virus treatment: CCV was pre-incubated with kaempferol at 37°C for 2 h before being added to CCO cells. (iv) Virus and kaempferol co-treatment: CCO cells were treated in media containing both kaempferol and CCV at 28°C for 1 h. (v) Post-treatment: CCO cells were incubated with CCV at 28°C for 1 h. After that, kaempferol (15 μg/mL) was supplemented at 1, 2, 4, 8, 12, and 24 h post-infection. In all treatment conditions, the unabsorbed CCV was washed off twice by PBS after 1 h of adsortion. The samples were collected to test the CCV gene expression by the RT-qPCR at 24 h and 36 h after the corresponding treatments.
(§1) For RT-qPCR, the total RNA was isolated from CCV-infected cells using RnaExTM (Trizol)^a reagent (GENERAY, China), and reversed transcribed applying a HiScript III RT SuperMix with gDNA wiper (Vazyme, China) following the manufacturer’s instructions. Quantitative PCR was performed with a LightCycler 96 Real-Time PCR Detection System (Roche, USA) using ChamQ Universal SYBR qPCR Master Mix (Vazyme, China) with the following cycle conditions: 95°C for 30 s, followed by 40 cycles of 95°C for 10 s and 60°C for 30 s. To assess the specificity of each amplicon, melt curve analysis was also performed at the end of each thermal profile. The primers used for PCR are listed in Supplementary Table S2. Each individual sample was run in triplicate wells. Fold changes of the selected gene vs 18 s (internal reference) were calculated by the 2^−△△Ct method.
Figure 5 Time of drug-addition assay of kaempferol in CCV inhibition. (A) The schematic diagram of the experimental settings. The CCO cells were infected with CCV for 1 h followed by the indicated kaempferol treatments. Cell lysates at indicated time post-infection were subjected to RT-qPCR. (B,C) The relative expression levels of the CCV ORF 39 and ORF 59 genes with cell-treatment, virus-treatment and co-treatment at 24 h and 36 h post-infection. (D) The relative expression levels of the CCV ORF 39 and ORF 59 genes with post-treatment at 36 h post-infection. The selected gene level was normalized to 18 s (internal reference) using the 2^− ΔΔCT method. Data represent mean ± SD. The p value was determined by *p < 0.05, **p < 0.01.

[3] = tested on: CCV (strain VR-665) in CCO cells; experiment: Anti-CCV replication assay of kaempferol, RT-qPCR; type: cell-based, Channel catfish virus (CCV, Ictalurid herpesvirus 1)
Description: The CCO cells were infected with the CCV at 10^3 TCID50/ml at 28°C for 1 h. Then, the cell culture medium was replaced using isopycnic DMEM medium containing various concentrations kaempferol (2.5, 5, 7.5, 10, 12.5, and 15 μg/mL). The cells without exposure to kaempferol and CCV were set as the mock control. CCV-infected cells served as a negative control. 24 and 36 h post-infection, the cells were collected and subjected to the RT-qPCR and western blot analysis for the viral gene and protein expression. Meanwhile, the cells were treated as described above for the determination of virus titer. […]
as §1, with “To assess the specificity of each amplicon, melt curve analysis was also performed at the end of each thermal profile. The primers used for PCR are listed in Supplementary Table S2. Each individual sample was run in triplicate wells.” left out
Figure 3 The anti-CCV activity by different concentration of kaempferol in vitro. […] The p value was determined by *p < 0.05, **p < 0.01.

For O=c1c(O)c(-c2ccc(O)cc2)oc2cc(O)cc(O)c12 [Kaempferol], the inhibition at 10 µg/mL (CCV in CCO cells [1]) was roughly 100%, the “intracellular CCV mRNA level, pre-treatment of cells” value (CCV in CCO cells [2]; 15 μg/mL for 2 h before CCV infection, 24 h post CCV infection) was “effectively decreased” and the “intracellular CCV mRNA level, post-treatment” value (CCV in CCO cells [2]; 15 μg/mL kaempferol supplemented 1-24 h post-infection, read at 36 h) was “significantly reduced”. The “viral ORF 39 and ORF 59 mRNA levels, co-treatment” value (CCV in CCO cells [2]; 15 μg/mL kaempferol with CCV at 28°C for 1 h) was “failed to decrease”, the “decrease of viral mRNA level, kaempferol supplemented at 24 h post-infection” value (CCV in CCO cells [2]; 15 μg/mL, post-treatment, read at 36 h post-infection) was “approximately 40%” and the “intracellular CCV mRNA level, virus-treatment” value (CCV in CCO cells [2]; CCV pre-incubated with kaempferol 2 h before addition to cells) was “significantly reduced”. For the same compound, the “inhibitory effect of CCV-ORF 39 and CCV-ORF 59” value ([3]; 24 h post viral infection, kaempferol 2.5-15 μg/mL, RT-qPCR) was “over 85%” and the “viral mRNA levels compared with the control group” value ([3]; 36 h post viral infection, kaempferol 10 μg/mL to 15 μg/mL) was “significantly lower”.
